{
  "source": "patent US20240423206A1",
  "about": "“HERBICIDE TRANSPORT SYSTEM” (priority 2021, published 2024)",
  "key": {"[1]": {"settings": "powdered form, repeated inhalation of dust; cited from earlier work"}, "[2]": {"description": "Pinoxaden (25 g) was added to the respective solvent (75 g) as set out in Table 1 and stirred at 50° C. for 1 hour. After cooling to room temperature (RT) the sample was visually checked for solid residues.\nWhere there were no residues and the resulting solution was a clear liquid the sample was considered as a “pass”."}},
  "data": [
    {"molecule": "CCc1cc(C)cc(CC)c1-c1c(OC(=O)C(C)(C)C)n2n(c1=O)CCOCC2", "note": "[pinoxaden]", "values": [
      {"measurement": "respiratory sensitisation", "setting": "[1]", "result": "respiratory sensitizer"}
    ]},
    {"molecule": "cyclohexanedicarboxylic acid, dinonyl ester", "values": [
      {"measurement": "Solubility", "setting": "[2]", "result": "Fail"}
    ]},
    {"molecule": "rapeseed oil", "values": [
      {"measurement": "Solubility", "setting": "[2]", "result": "Fail"}
    ]}
  ]
}
